Consider 6 compounds from patent US12427192B2, “Water soluble adjuvant and composition containing same” (Sumitomo Pharma Co., Ltd., priority 2019, dated 2025).

One experiment concerns the target T1, human TLR7 (Homo sapiens, UniProt Q9NYK1).
T1 construct: expresses full-length human TLR7 and secretory alkaline phosphatase (SEAP) reporter gene; host or cells: HEK293 (TLR7/NF-κB/SEAPorter)
T1 sequence (Q9NYK1 27-1049): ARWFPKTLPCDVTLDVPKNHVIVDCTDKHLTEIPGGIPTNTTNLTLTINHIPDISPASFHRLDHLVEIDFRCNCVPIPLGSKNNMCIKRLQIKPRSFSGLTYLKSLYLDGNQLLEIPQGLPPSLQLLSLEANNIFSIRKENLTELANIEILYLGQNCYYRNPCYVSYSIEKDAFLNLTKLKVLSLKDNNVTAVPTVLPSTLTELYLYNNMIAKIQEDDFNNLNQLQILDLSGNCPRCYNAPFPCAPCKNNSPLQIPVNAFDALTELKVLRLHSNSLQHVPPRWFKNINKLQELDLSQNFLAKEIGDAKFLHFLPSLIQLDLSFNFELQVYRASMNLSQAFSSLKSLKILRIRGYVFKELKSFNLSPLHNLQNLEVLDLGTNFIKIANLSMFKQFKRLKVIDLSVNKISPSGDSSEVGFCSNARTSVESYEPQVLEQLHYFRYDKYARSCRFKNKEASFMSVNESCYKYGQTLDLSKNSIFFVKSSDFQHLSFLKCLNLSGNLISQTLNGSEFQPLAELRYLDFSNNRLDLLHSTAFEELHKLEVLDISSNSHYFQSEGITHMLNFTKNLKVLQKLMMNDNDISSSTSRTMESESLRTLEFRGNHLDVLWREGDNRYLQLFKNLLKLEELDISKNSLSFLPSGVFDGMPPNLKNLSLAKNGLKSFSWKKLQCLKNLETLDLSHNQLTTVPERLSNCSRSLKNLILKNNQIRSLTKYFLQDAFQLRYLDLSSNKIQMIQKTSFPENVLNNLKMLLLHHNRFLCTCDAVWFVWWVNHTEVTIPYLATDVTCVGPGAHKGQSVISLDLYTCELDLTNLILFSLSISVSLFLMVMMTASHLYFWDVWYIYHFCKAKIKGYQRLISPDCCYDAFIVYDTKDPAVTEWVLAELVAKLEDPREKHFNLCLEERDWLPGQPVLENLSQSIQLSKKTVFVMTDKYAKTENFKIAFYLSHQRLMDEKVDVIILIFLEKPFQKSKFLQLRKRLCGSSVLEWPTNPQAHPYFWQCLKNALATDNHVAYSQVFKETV
The experiment in a line: Human TLR7 reporter gene assay (TLR7/NF-κB/SEAPorter HEK293 cell line), Tests 1 and 21. The format is cell-based. The source says:
Human TLR7 Reporter Gene Assay
TLR7/NF-κB/SEAPorter™ HEK293 cell line (Imgenex Corporation) is a stably co-transfected cell line which expresses full-length human TLR7 and secretory alkaline phosphatase (SEAP) reporter gene under the transcriptional regulation of an NF-κB response element. The TLR7 expression of the cell line has been already tested by flow cytometry. Transfectants with stable expression were selected using the antibiotic blasticidin and Geneticin. TLR signaling leads to the translocation of NF-κB and the activation of the promoter results in expression of the SEAP gene. TLR7-specific activation was assessed by determining the level of SEAP produced following 24-hour incubation of the cells at 37° C. with each compound prepared in Examples and Reference examples in the presence of 0.1% (v/v) dimethylsulfoxide (DMSO). The human TLR7 activity for the present compound was assessed by human TLR7 reporter gene assay, and the results are shown in Tables 3 and 4 as the compound concentration which produced half of the maximal level of SEAP induction (EC50)
According to the method of Test 1, human TLR7 reporter gene assay was done with the following samples, and the result was shown in the table below.

The next experiment deals with T2, mouse TLR7 (Mus musculus, UniProt P58681).
T2 construct: expresses full-length mouse TLR7 and secretory SEAP reporter gene; host or cells: HEK-Blue mTLR7 (HEK293-derived)
T2 sequence (P58681 27-1050): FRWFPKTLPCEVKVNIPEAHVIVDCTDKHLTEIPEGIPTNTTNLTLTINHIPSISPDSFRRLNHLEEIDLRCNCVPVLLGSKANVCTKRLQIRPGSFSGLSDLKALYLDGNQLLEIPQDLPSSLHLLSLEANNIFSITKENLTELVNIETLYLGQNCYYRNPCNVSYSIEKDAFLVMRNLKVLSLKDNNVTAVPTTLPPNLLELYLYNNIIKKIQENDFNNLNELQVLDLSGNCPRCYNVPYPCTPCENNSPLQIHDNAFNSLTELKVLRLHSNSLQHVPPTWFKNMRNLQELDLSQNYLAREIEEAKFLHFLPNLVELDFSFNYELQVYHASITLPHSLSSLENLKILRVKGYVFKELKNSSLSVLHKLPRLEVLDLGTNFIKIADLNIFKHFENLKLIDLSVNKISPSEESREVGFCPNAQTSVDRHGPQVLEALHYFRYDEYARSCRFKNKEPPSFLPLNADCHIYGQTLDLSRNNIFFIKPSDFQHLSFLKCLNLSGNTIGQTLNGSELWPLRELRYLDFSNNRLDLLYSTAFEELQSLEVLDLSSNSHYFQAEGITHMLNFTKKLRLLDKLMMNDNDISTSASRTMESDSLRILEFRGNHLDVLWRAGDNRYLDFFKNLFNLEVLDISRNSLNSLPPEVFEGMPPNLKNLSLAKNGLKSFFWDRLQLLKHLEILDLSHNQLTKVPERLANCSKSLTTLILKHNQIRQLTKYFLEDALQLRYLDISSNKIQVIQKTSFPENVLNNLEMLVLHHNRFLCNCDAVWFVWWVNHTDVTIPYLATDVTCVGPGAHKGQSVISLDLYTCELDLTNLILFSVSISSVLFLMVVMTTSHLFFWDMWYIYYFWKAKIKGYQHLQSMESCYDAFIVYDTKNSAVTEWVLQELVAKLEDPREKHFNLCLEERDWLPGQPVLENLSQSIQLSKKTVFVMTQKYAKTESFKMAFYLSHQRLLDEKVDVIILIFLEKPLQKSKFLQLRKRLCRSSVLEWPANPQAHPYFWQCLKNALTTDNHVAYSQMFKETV
The experiment in a line: Mouse TLR7 reporter gene assay (HEK-Blue mTLR7 cell line), Test 2. The format is cell-based. As to conditions: half of maximal SEAP induction, 20-24-hour incubation, 0.1% DMSO. The source says:
Test 2 Mouse TLR7 Reporter Gene Assay
HEK-Blue™ mTLR7 cell line (Invivogen) is a stably co-transfected cell line which expresses full-length mouse TLR7 and secretory SEAP reporter gene under the transcriptional regulation of an NF-κB response element. The TLR7 expression of the cell line has been already tested by RT-PCR. Transfectants with stable expression were selected using the antibiotic blasticidin and Zeocin. TLR signaling leads to the translocation of NF-κB and the activation of the promoter results in expression of the SEAP gene. TLR7-specific activation was assessed by determining the level of SEAP produced following 20-24-hour incubation of the cells at 37° C. with each compound prepared in Examples and Reference examples in the presence of 0.1% (v/v) DMSO. The mouse TLR7 activity for the present compound was assessed by mouse TLR7 reporter gene assay, and the results are shown in Tables 5 and 6 as the compound concentration which produced half of the maximal level of SEAP induction (EC50).

For experiment [1], the system named is HLA-A*02:01 transgenic mouse. The experiment in a line: Test 9: in vivo adjuvant activity, cocktail vaccine b, IFNγ ELISPOT. As to conditions: added to cocktail vaccine b; Peptide SEQ ID No. 1 or SEQ ID No. 4; 0.4 nmol per body, twice; FIG. 6 and 7. As for the experimental part: Evaluation of In Vivo Adjuvant Activity in HLA-A*02:01 Transgenic Mouse
The in vivo adjuvant activity of the compounds prepared in Examples 8, 9, and 10 and the compound prepared in Reference example 12 was evaluated in the following procedure. To cocktail vaccine b comprising Compound of formula 4 prepared in Reference example 8 and Peptide SEQ ID No. 3 prepared in Reference example 3 with Montanide ISA51 VG was added the compound prepared in Example 8, 9, or 10, or the compound prepared in Reference example 12 to prepare each vaccine. The vaccine was administered to a HLA-A*02:01 transgenic mouse, and the adjuvant activity of each vaccine was evaluated by the method of testing antigen-specific CTL induction.
Specifically, Compound of formula 4 and Peptide SEQ ID No. 3 were dissolved in DMSO, and then diluted with water for injection to concentrations of Compound of formula 4 of 3 mg/mL and Peptide SEQ ID No. 3 of 2.25 mg/mL. The diluted peptide solution was mixed and emulsified with an equal volume of Montanide ISA 51 VG to prepare cocktail vaccine b. Cocktail vaccine b was injected to mice intradermally at the tail base area in an amount for administering 300 μg of Compound of formula 4 per body and 225 μg of Peptide SEQ ID No. 3 per body. Or, in the step of preparing cocktail vaccine b, the compound prepared in Example 8, 9, or 10, or the compound prepared in Reference example 12 was added to the diluted peptide solution to prepare a vaccine, and the prepared vaccine was injected to mice intradermally at the tail base area in an amount for administering 300 μg of Compound of formula 4 per body, 225 μg of Peptide SEQ ID No. 3 per body, and 0.4 nmol of the compound prepared in Example 8, 9, or 10, or the compound prepared in Reference example 12 per body. The administrations were done twice, which had one week interval. One week after the final administration, the mice were sacrificed with CO2 gas. Splenocytes were harvested from spleens removed from the mice. Like Test 4, Peptide (SEQ ID No. 1 or SEQ ID No. 4) was added to the splenocyte-containing ELISPOT plate at a final concentration of 10 μg/ml, and the plate was incubated overnight at 37° C. under an atmosphere of 5% CO2 to re-stimulate the peptide in vitro. Then, after removal of the supernatant from the wells, stained spots on the ELISPOT plate were counted.

Where [2] appears, read: Test 1, TLR7/NF-κB/SEAPorter HEK293 cell line, half of maximal SEAP induction, 24-hour incubation, 0.1% DMSO, read-out: EC50.
Setting [3] is: Test 21, according to the method of Test 1, read-out: human EC50.

Like-named read-outs stand apart in the source and are kept apart here.

Regarding `CCC[C@@H](CCO)Nc1nc(N)nc(C)c1Cc1ccc(CN(C)CCOCCOCCOCCOCCO)cc1OC` [Example 2, 1-{4-[(2-amino-4-{[(3S)-1-hydroxyhexan-3-yl]amino}-6-methylpyrimidin-5-yl)methyl]-3-methoxyphenyl}-2-methyl-5,8,11,14-tetraoxa-2-azahexadecan-16-ol-trifluoroacetate], the EC50 at human TLR7 (setting [2]) is 94 nM; on mouse TLR7, 21 nM.
As for `CCCCCNc1nc(N)nc(C)c1Cc1cc(CN(C)CCOCCOCCOCCOCCO)ccc1OC` [Example 3, 1-(3-{[2-amino-4-methyl-6-(pentylamino)pyrimidin-5-yl]methyl}-4-methoxyphenyl)-2-methyl-5,8,11,14-tetraoxa-2-azahexadecan-16-ol-trifluoroacetate], the EC50 at human TLR7 (setting [3]) was 637 nM.
`CCCCCNc1nc(N)nc(C)c1Cc1ccc(CN(C)CCOCCOCCOCCOCCOCCOCCOCCOCCOCCO)cc1OC` [Example 8, 1-(4-{[2-amino-4-methyl-6-(pentylamino)pyrimidin-5-yl]methyl}-3-methoxyphenyl)-2-methyl-5,8,11,14,17,20,23,26,29-nonaoxa-2-azahentriacontan-31-ol]: the EC50 at human TLR7 (setting [3]) was 388 nM. In experiment [1], the “CTL counts responsive to the peptide compared with Reference example 12” value is listed as “more” and the “CTL counts responsive to the peptide compared with adding no compound” value is given as “more”.
Regarding `CCCCCNc1nc(N)nc(C)c1Cc1ccc(CN(C)CCOCCOCCOCCOCCOCCOCCOCCOCCOCCOCCOCCOCCOCCOCCOCCOCCOCCOCCOCCOCCOCCOCCOCCO)cc1OC` [Example 9, 1-(4-{[2-amino-4-methyl-6-(pentylamino)pyrimidin-5-yl]methyl}-3-methoxyphenyl)-2-methyl-5,8,11,14,17,20,23,26,29,32,35,38,41,44,47,50,53,56,59,62,65,68,71-tricosaoxa-2-azatriheptacontan-73-ol], at human TLR7 (setting [3]), the EC50 worked out at 3990 nM. In addition, in experiment [1], the “CTL counts responsive to the peptide compared with Reference example 12” value is “more” and the “CTL counts responsive to the peptide compared with adding no compound” value was “more”.
On to `CCCCCNc1nc(N)nc(C)c1Cc1ccc(CN(C)CCOCCOCCOCCOCCOCCOCCOCCOCCOCCOCCOCCOCCOCCOCCOCCOCCOCCOCCOCCOCCOCCOCCOCCOCCOCCOCCOCCOCCOCCOCCOCCOCCOCCOCCOCCO)cc1OC` [Example 10, 1-(4-{[2-amino-4-methyl-6-(pentylamino)pyrimidin-5-yl]methyl}-3-methoxyphenyl)-2-methyl-5,8,11,14,17,20,23,26,29,32,35,38,41,44,47,50,53,56,59,62,65,68,71,74,77,80,83,86,89,92,95,98,101,104,107-pentatriacontaoxa-2-azanonahectan-109-ol], for which the concentration giving a half-maximal response (EC50) at human TLR7 (setting [3]) is 3810 nM.
`CCC[C@@H](CCO)Nc1nc(N)nc(C)c1Cc1ccc(CNC)cc1OC` [compound 11, (3S)-3-{[2-amino-5-({2-methoxy-4-[(methylamino)methyl]phenyl}methyl)-6-methylpyrimidin-4-yl]amino}hexan-1-ol, reference compound]: the EC50 at human TLR7 (setting [2]) was determined as 8 nM; on mouse TLR7, 2 nM.
